{"source": "patent US20200247855A1", "about": "“THERAPY AND DIAGNOSTICS” (OXFORD UNIVERSITY INNOVATION LIMITED, priority 2017, published 2020)", "target": "T1, human CCL8-647 (Homo sapiens, UniProt P80075)", "T1 construct": "purchased Almac (UK)", "T1 sequence (P80075 24-99)": "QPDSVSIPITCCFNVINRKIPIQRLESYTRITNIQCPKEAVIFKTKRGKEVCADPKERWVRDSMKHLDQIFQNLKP", "assay": "Fluorescent chemokine binding to THP-1 cells (flow cytometry)", "type": "cell-based", "settings": "FIG. 16 A, B", "method": "P672_PEP_SCRAM (C-terminally amidated)=[…] FIG. 16(A). […] 60 μM (+) P672_PEP or P672_PEP_SCRAM were incubated with CCL8-647 (2.5 nM) for half an hour at 37° C. prior to adding to THP-1 cells and incubating everything together for a further half an hour at 37° C. Cells were then analysed using fluorescence assisted cell sorting (10,000 cells analysed) and MFI recorded. Experiment carried out in triplicate where each data point is the average of one experiment carried out in technical triplicate. Mean with SEM shown and statistical significance was determined using one-way ANOVA with Sidak's correction for multiple comparisons using Graph Pad Prism 6. ****=P<0.00005, ns=not significant.\nData are shown as mean of two technical replicates. […] Curves were fitted with 4 parameters to estimate IC50.\nFluorescent chemokine (conjugated to AlexaFluor-647) binding to THP-1 cells results in an increase in the cellular fluorescence intensity, which is quantitatively measured using flow cytometry.\nFluorescent Chemokine/Receptor Blocking Assay CCL8-647 (2.5 nM, final) or […] (1.2 nM, final) was incubated for 30 minutes with varying doses of peptide (0-100 μM, final concentration) in 50 μL assay buffer (RPMI-1640+L-glutamine (4 mM)+10% heat treated fetal bovine serum+0.2% DMSO) at 37° C. […]", "note": "No end group written: not given here."}
{"substance": "EDEDYEDFFKPVTAYF-NH2 [BK1.1]", "values": [{"measurement": "Inhibition of CCL8-647 binding to THP-1 cells", "value": "could inhibit CCL8-647 binding to THP-1 cells"}]}
